Tests used:
Assay type in all cases: physicochemical
[1] = Physical stability on storage, followed by PXRD; details: two weeks of storage at 70° C. with 75% relative humidity
Procedure: A PXRD pattern for maleate polymorph Form B was measured at: 1) an initial time point and 2): two weeks after storage at 70° C. with 75% relative humidity (RH).
A PXRD pattern for S-camsylate polymorph Form A was measured at: 1) an initial time point and 2): two weeks after storage at 70° C. with 75% relative humidity (RH).

[2] = Susceptibility of salt forms to hydration; details: compared to other salt forms of Compound 1; solid dosage form suitability
[3] = Hygroscopicity by dynamic vapor sorption (DVS); details: 30° C., 0 to 90% RH in 15% RH intervals
Procedure: Solid (20-25 mg) was exposed to a controlled relative humidity (% RH) and temperature environment (30° C.), and the weight change was recorded over time. The humidity was stepped from 0 to 90% RH in 15% RH intervals.

change of PXRD pattern after storage (physical stability) [1]	susceptibility to hydration [2]	hygroscopicity indicated by dynamic vapor sorption isotherm [3]	Structure (SMILES)
did not change significantly	not susceptible to hydration	non-hygroscopic	CC1(C)[C@@H]2CC[C@@]1(CS(=O)(=O)O)C(=O)C2.CNCc1ccc(-c2[nH]c3cc(F)cc4c3c2CCNC4=O)cc1 [S-camsylate polymorph Form A]
did not change significantly	not susceptible to hydration	non-hygroscopic	CNCc1ccc(-c2[nH]c3cc(F)cc4c3c2CCNC4=O)cc1.O=C(O)C=CC(=O)O [maleate polymorph Form B]

Source: patent publication US10278974B2 (Pfizer Inc., priority 2010, dated 2019)
